Experimental findings from patent US11993576B2, “N-benzyl-N-arylsulfonamide derivative and preparation and use thereof” (Hangzhou Yirui Pharmaceutical Technology Co., Ltd, priority 2019, dated 2024) are described below.

For one assay, the target named is human Kv1.5 (Homo sapiens, UniProt P22460). The experiment in a line: Conventional patch clamp assay of inhibitory activity against Kv1.5. To be noted: conventional patch-clamp method; CHO-K1 cells stably expressing human Kv1.5. It counts as cell-based. The method, then:
III. Conventional Patch Clamp Assay of Inhibitory Activity Against Kv1.5
The principle and method for the conventional patch clamp method can be found in Grissmer et al. [Grissmer et al. Molecular Pharmacology 1994, 45:1227-1234].
Inhibitory activity of a compounds against Kv1.5 was assessed using a CHO-K1 recombinant cell line stably expressing human Kv1.5 (Charles River, Calif.). The cells were cultured in an F-12K culture medium containing 5% calf serum (Invitrogen, Carlsbad.ca) in an incubator at 37° C. and under air humidity with 6% CO2.
During the experiment, adherent cells were placed in a recording chamber under an inverted microscope. All the experiments were performed at room temperature. Each of the cells used itself as the control.
The test compounds were formulated to their final concentrations on the day of assay, and then dissolved in an extracellular fluid. The extracellular fluid (mM) was: NaCl, 137; KCl, 4; CaCl2, 1.8; MgCl2, 1; HEPES, 10; glucose 10; pH 7.4 (NaOH titration). All the solutions of the test compounds and the control compounds contained 0.3% of DMSO.
Each of the compounds was perfused by a gravity-driven perfusion system. At least two cells were tested for each of the concentrations of a compound. After the current was stable, the blocking effect of the compounds was calculated by comparing the change in the current before and after administration of the compounds.
1000 μM 4-AP was used as a positive control.
The cells were transferred to a perfusion chamber, and were perfused with the extracellular fluid. Intracellular fluid (mM): K-aspartate, 130; MgCl2, 5; EGTA 5; HEPES, 10; pH 7.2 (KOH titration). The intracellular fluid was stored in a small amount in a refrigerator at −80° C. in batches, and was thawed on the day of the experiment. The electrodes were drawn by PC-10 (Narishige, Japan). A whole-cell patch-clamp recording was performed, with the noise being filtered by one-fifth of the sampling frequency.
The cells were clamped at −80 mV and then depolarized to 20 mV with square waves lasting for 2 seconds to obtain a Kv1.5 current. This process was repeated every 20 seconds. The maximum current elicited by the square waves was detected. After the maximum current became stable, the test compounds were perfused. After the reaction was stable, the blocking strength was calculated.
Data was collected and analyzed using pCLAMP 10 (Molecular Devices, Union City, CA). A stable current meant a current which varies within a limited range over time. The value of the stable current was used to calculate the effect of a compound at this […].
Background: In patch-clamp work, channel activity is measured electrically.

Assay [1] concerns rat model of allergic contact dermatitis (ACD). The experiment in a line: Rat model of allergic contact dermatitis (ACD model) induced by DNCB. It counts as in vivo. To be noted: SD female rats, 5%, 1.5%, 0.5% applied to right ear by wiping three times a day, 4 days, FIG. 1. The method, then: IV. Effects of Compound 37 on a Rat Model of Allergic Contact Dermatitis (ACD Model) 1. Laboratory Animal
SPF SD female rats with body weight of 130-150 g were used.
Dexamethasone (DXMS) sodium phosphate injection, 5 mg/ml/injection (Shiyao Yinhu Pharmaceutical Co., Ltd.); 1-chloro-2,4-dinitrobenzene (DNCB) (TCI Shanghai); vehicle and negative control: acetone/DMSO 9:1 (Vehicle, Model group).
3.1 The animals were randomly divided into 6 groups based on body weight with 10 animals per group: blank control group, model control group, positive control group (dexamethasone sodium phosphate injection 5 mg/mL), 5% Compound 37 group, 1.5% Compound 37 group and 0.5% Compound 37 group.
3.2 Modeling and administration: a rat model of allergic contact dermatitis (ACD) was established by sensitizing and stimulating the rat's skin with a DNCB solution in acetone and DMSO (acetone-DMSO 9:1). The rats were normally fed in a SPF barrier system for 1 week. Long hair was removed with a razor and short hair was removed with depilatory cream within an area of about 2 cm×2 cm from abdomen of the rats one day before the experiment. […]
3.3 Measurement of difference between ear thicknesses: before the stimulation and after the final administration, the thickness of central parts of left and right ears of the rats in each of the groups was measured with electronic digital calipers. […]

Sequence of human Kv1.5 (P22460 whole entry): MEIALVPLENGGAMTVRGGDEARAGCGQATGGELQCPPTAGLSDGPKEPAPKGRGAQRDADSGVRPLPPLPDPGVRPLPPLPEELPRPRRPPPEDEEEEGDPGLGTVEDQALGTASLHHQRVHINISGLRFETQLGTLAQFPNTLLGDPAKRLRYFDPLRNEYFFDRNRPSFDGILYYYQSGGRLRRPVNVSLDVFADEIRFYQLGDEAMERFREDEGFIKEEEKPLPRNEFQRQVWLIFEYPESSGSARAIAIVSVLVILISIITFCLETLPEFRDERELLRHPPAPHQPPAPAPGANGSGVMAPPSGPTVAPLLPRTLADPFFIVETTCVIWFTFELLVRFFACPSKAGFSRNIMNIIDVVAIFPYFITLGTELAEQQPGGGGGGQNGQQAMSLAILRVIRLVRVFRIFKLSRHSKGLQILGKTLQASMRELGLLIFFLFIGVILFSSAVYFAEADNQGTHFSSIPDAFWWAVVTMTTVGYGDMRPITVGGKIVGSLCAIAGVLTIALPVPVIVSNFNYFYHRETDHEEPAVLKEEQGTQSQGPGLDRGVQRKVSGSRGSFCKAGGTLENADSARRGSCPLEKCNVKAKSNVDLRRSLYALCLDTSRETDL

Take `CC(C)CS(=O)(=O)N(Cc1ccc(F)cc1)c1ccc(N2CCN(C(=O)N(C)C)CC2)c(C#N)c1` [Compound 37, 4-(2-cyano-4-((N-(4-fluorobenzyl)-2-methylpropyl)sulfonamido)phenyl)-N,N-dimethylpiperazin-1-formamide]: the IC50 – broadly, the point on the concentration scale where inhibition reaches its midpoint – at human Kv1.5 is 3.65 µM. For the same compound, in assay [1], the “ear inflammation (difference between ear thicknesses)” value is “significantly reduced ear inflammation”.
